Results from publication PMC4823711, “Allosteric Partial Inhibition of Monomeric Proteases. Sulfated Coumarins Induce Regulation, not just Inhibition, of Thrombin” (Scientific Reports, 2016).
Where “and” joins values, the source holds several entries; their conditions need not be identical. Equal entries are not always repeated.

What was measured:
Assay type in all cases: biochemical
[1] = target: thrombin (Homo sapiens, UniProt P00734); experiment: Michaelis-Menten kinetics of Spectrozyme TH hydrolysis by thrombin; parameters: 6 nM plasma α-thrombin; purchased Haematologic Technologies (Essex Junction, VT); settings: for VMAX: pH 7.4, 25 °C
Procedure: Four concentrations (0, 25, 187, and 2500 nM) of 3g were studied in triplicate where 3g was incubated with thrombin for 10 min in buffer (20 mM Tris-HCl, 100 mM NaCl, 2.5 mM CaCl2, 0.1% PEG 8000, pH 7.4) at 25 °C. Spectrozyme TH at various concentrations (0–250 μM) was added at each of the four 3g concentrations and the initial rate of hydrolysis was recorded from the increase in A405 as a function of time. This slope was fitted to the standard Michaelis-Menten equation to derive VMAX and KM of the reaction at each of the 3g concentrations.

[2] = target: T1, thrombin mutant R93A (Homo sapiens, UniProt P00734, R452A); experiment: Inhibition of thrombin mutant R93A
T1 construct: a group of thrombin mutants containing replacement of either Arg or Lys present in exosite 2 to Ala
Procedure: (§1) Chromogenic substrate hydrolysis assay was used to measure potency of inhibition, as previously reported. The assay was performed using Flexstation III (Molecular Devices, Sunnyvale, CA) by monitoring substrate hydrolysis at 405 nm. For thrombin and its mutants, 180 μL of buffer (20 mM Tris-HCl, 100 mM NaCl, 2.5 mM CaCl2, 0.1% (polyethylene glycol) PEG 8000, pH 7.4) was added to each well followed by 5 μL of 240 nM thrombin and 10 μL of sulfated coumarin in DMSO to give 0.002 to 250 μM final concentration (or 10 μL of DMSO alone). After incubation for 10 min at 25 °C, 5 μL of 2 mM Spectrozyme TH was added to each well simultaneously and allowed to react for 60 seconds at 25 °C while simultaneously monitoring the reaction to obtain the rate of increase in A405. Identical experimental conditions were used for reactions in the presence of antithrombin, except for 100 nM of antithrombin added prior to the addition of the substrate.

[3] = target: T2, thrombin mutant R173A (Homo sapiens, UniProt P00734, R541A); experiment: Inhibition of thrombin mutant R173A; settings: pH 7.4, 25 °C
T2 construct: a group of thrombin mutants containing replacement of either Arg or Lys present in exosite 2 to Ala
Procedure: as §1

[4] = target: T3, factor Xa (Homo sapiens, UniProt P00742); experiment: Antithrombin inactivation of factor Xa in the presence of sulfated coumarin; settings: 0 or 220 nM 3g, pH 7.2, 25 °C
T3 construct: antithrombin, factor Xa and factor XIa were from Haematologic Technologies; purchased Haematologic Technologies (Essex Junction, VT); host or cells: human plasma
T3 sequence (P00742 235-488 limits assumed): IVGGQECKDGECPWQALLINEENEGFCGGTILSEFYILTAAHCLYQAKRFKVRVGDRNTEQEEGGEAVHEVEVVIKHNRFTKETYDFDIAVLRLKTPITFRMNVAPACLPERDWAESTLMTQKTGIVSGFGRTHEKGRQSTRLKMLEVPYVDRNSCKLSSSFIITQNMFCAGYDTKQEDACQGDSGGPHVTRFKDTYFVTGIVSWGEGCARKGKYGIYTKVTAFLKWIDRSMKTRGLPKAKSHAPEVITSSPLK
T3 sequence (P00742 41-179 limits assumed): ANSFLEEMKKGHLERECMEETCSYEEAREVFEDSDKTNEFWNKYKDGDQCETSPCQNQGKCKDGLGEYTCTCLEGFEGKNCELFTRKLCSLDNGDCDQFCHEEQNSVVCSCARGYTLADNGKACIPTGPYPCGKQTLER
Procedure: The effect of 3g on the reaction of thrombin (or factor Xa) with antithrombin was studied under pseudo-first order conditions such that [AT]0 ≫ [T]0. A fixed concentration of 6 nM plasma α-thrombin in 20 mM Tris-HCl buffer, pH 7.2, containing 100 mM NaCl, 2.5 mM CaCl2 and 0.1% PEG 8000 at 25 °C was incubated for 128 min with final concentrations of 0, 75, 225, or 675 nM of 3g following which a fixed concentration of 100 nM of antithrombin was added and the reaction allowed to proceed. […] The initial rate of hydrolysis of the Spectrozymes were monitored from the linear increase in A405. The fractional residual enzyme activity at each time point was calculated from the slope, i.e., thrombin activity, measured at the start of the experiment and fitted by the standard exponential decay equation 6 to calculate the observed pseudo-first order rate constant, kOBS, at each concentration of 3g. The intrinsic second-order rate constant of antithrombin inhibition of thrombin (kINT) was calculated using equation 7 and plotted against the concentration of thrombin–3g complex, obtained from quadratic equation 8, to derive the kINT of antithrombin inhibition of thrombin–3g complex.

[5] = target: T4, thrombin mutant K169A (Homo sapiens, UniProt P00734, K537A); experiment: Inhibition of thrombin mutant K169A; settings: pH 7.4, 25 °C
T4 construct: a group of thrombin mutants containing replacement of either Arg or Lys present in exosite 2 to Ala
Procedure: as §1

[6] = target: T5, thrombin mutant R101A (Homo sapiens, UniProt P00734, R461A); experiment: Inhibition of thrombin mutant R101A; settings: pH 7.4, 25 °C
T5 construct: a group of thrombin mutants containing replacement of either Arg or Lys present in exosite 2 to Ala
Procedure: as §1

[7] = target: T6, thrombin mutant R233A (Homo sapiens, UniProt P00734, R608A); experiment: Inhibition of thrombin mutant R233A; settings: pH 7.4, 25 °C
T6 construct: a group of thrombin mutants containing replacement of either Arg or Lys present in exosite 2 to Ala
Procedure: as §1

[8] = target: T7, thrombin mutant R175A (Homo sapiens, UniProt P00734, R543A); experiment: Inhibition of thrombin mutant R175A; settings: pH 7.4, 25 °C
T7 construct: a group of thrombin mutants containing replacement of either Arg or Lys present in exosite 2 to Ala
Procedure: as §1

[9] = target: T3, factor Xa; experiment: Chromogenic substrate hydrolysis assay, factor Xa inhibition (Spectrozyme FXa)
Procedure: For factor XIa inhibition studies, 85 μL of buffer (50 mM Tris-HCl, 150 mM NaCl, 0.1% PEG 8000, 0.02% Tween 80, pH 7.4) was added to each well, followed by 7 μL of 15.3 nM enzyme and 3 μL of sulfated coumarin (3.75–500 μM final concentration) and incubated for 10 min at 37 °C. After the incubation period, 5 μL of 6.9 mM S-2366 was added to each well simultaneously and allowed to react for 300 sec at 37 °C. For factor Xa assay, 180 μL of buffer (20 mM Tris-HCl, 100 mM NaCl, 2.5 mM CaCl2, 0.1% PEG 8000, 0.02% Tween 80, pH 7.4) was added to each well followed by 5 μL of 43.5 nM enzyme, 10 μL of sulfated coumarin (0.002–250 μM final concentration). After a 10 min incubation, 5 μL of 5 mM Spectrozyme FXa was added to each well simultaneously and allowed to react for 300 seconds at 37 °C. The slopes generated from each experiment were used to calculate the fractional residual activity (Y) at each concentration of the inhibitor, and analyzed using logistic equation 1, in which YM is the maximum efficacy, Y0 is minimum efficacy and HS is the Hill slope.

VMAX ([1]; [3g] 25 nM): 52.4 ± 1.5 mAU/min | VMAX ([1]; [3g] 187 nM): 45.3 ± 1.1 mAU/min | VMAX ([1]; [3g] 2500 nM): 31.0 ± 0.9 mAU/min and 31.0 mAU/min | reduction of VMAX ([1]; at saturating levels of 3g): ≤ 50% | increase of inhibition potency in comparison to recombinant wild-type thrombin ([2]; R93A mutant): 2.3 fold | HS ([2]; R93A, pH 7.4, 25 °C): 1.3 | IC50 ([2]; R93A, pH 7.4, 25 °C): 154 ± 20 nM | ΔY ([2]; R93A, pH 7.4, 25 °C): 51 ± 2% | HS [3]: 2.0 | IC50 [3]: 522 ± 90 nM | ΔY [3]: 36 ± 3% | change in the second-order rate constant of antithrombin inhibition of factor Xa [4]: did not induce any change | HS [5]: 7.6 | IC50 [5]: 494 ± 50 nM | ΔY [5]: 38 ± 3% | HS [6]: 2.5 | IC50 [6]: 255 ± 50 nM | ΔY [6]: 35 ± 4% | HS [7]: 2.0 | IC50 [7]: 359 ± 70 nM | ΔY [7]: 33 ± 4% | HS [8]: 2.2 | IC50 [8]: 409 ± 80 nM | ΔY [8]: 42 ± 5% | selectivity for thrombin in comparison to factor Xa [9]: ~ 800 fold | IC50 ([9]; pH 7.4, 37 °C, read-out: IC50 against factor Xa): > 30000 nM
SMILES: O=c1oc2cc(OCCCCn3cc(COc4ccc(-c5c(-c6ccccc6)c6cc(Cl)cc(Cl)c6oc5=O)cc4)nn3)ccc2c(-c2ccccc2)c1-c1ccc(OS(=O)(=O)O)cc1 [3g]
